Experimental data taken from patent US9173871B2, “Oxazole and thiazole compounds as beta-catenin modulators and uses thereof” (New York University, priority 2008, dated 2015).

Key:
LNCaP cells = assay: Proliferation assay (neutral red uptake), LNCaP; type: cell-based; conditions: 20 μM daily
Method: A) Cells were cultured in phenol-red free RPMI with either 5% charcoal-stripped FBS supplemented with 0.1 nM R1881 (LNCaP) or 10% charcoal-stripped FBS alone (LNCaP-abl). […] Neutral red uptake assay was performed at the end of treatment to estimate the number of viable cells. […] Fixed cells were stained with Propidium Iodide and analyzed for DNA content using flow cytometry. The first and the second red peak and the dashed area represent G0/G1, M and S-phase cell population, respectively.

LNCaP-abl tumors = assay: LNCaP-abl xenograft model of castration-resistant prostate cancer in nude mice; type: in vivo; conditions: 100 mg/kg daily, intraperitoneal then intratumor injection, FIG. 23
Method: Tumor volumes were measured twice weekly.
The cell types for xenograft studies include LNCaP, LNCaP-abl and VCaP, which have all been previously utilized for xenograft studies and are able to recur following castration [Korenchuk et al., In Vivo, 2001. 15(2): 163-8; Culig et al., Br J Cancer, 1999. 81(2): 242-51; Graff et al., J Biol Chem, 2000. 275(32): 24500-5]. VCaP cells harbor a wild type androgen receptor and are androgen-dependent for growth [van Bokhoven et al., Prostate, 2003. 57(3): 205-25]. Other characteristics of cells to be considered in such experiments include the mutational status of AR, pTEN, p53, ETS fusion, and the year derived. Following determination of the MTD, 5×10^6 cells are mixed with an equal volume of Matrigel (BD Biosciences) and injected subcutaneously into the right and left flank of a BALB/c nu/nu outbred mouse. […] To assay growth, tumors are measured with Vernier calipers, and the total volume determined by using the formula 0.52×width×height×depth. Tumor growth is measured twice weekly and animals are also weighed twice weekly to assess toxicity.
Methods: Rapidly cycling LNCaP-abl cells (15×10^6) were mixed with an equal volume of Matrigel and injected subcutaneously into the flank region of nude male mice. […] To assess growth, tumors were measured twice weekly with Vernier calipers, and the total volume was determined.

[1] = test system: AR and β-catenin target genes in LNCaP cells; assay: Q-PCR of AR and β-catenin target genes in LNCaP cells; type: cell-based; conditions: 20 μM, 24 hr
From the text: Samples are normalized to RPL19 and E-cadherin and GAPDH are included as controls.
While β-catenin can act as an AR coactivator [Song et al., J Biol Chem, 2005. 280(45): 37853-67], AR mRNA levels are also directly regulated by TCF binding sites in the AR promoter [Yang et al., Oncogene, 2006. 25(24): 3436-44]. […] AR mRNA was quantified along with well-characterized AR target genes, Nkx3.1 and PSA. In addition, CDC20, CDK1 and UBE2C, M phase cell cycle regulatory genes that are AR targets in LNCaP-abl cells were examined [Wang et al., Cell, 2009. 138(2): 245-56]. Levels of c-myc were also examined since c-myc is a known Wnt/β-catenin target gene and assessment of information available through the Memorial Sloan Kettering cBio Cancer Genomics portal [Taylor et al., Cancer Cell, 2010. […] E-cadherin and GAPDH are not affected by C3 treatment.

[2] = test system: AR and β-catenin target genes in LNCaP-abl cells; assay: Q-PCR time course of AR and β-catenin target genes in LNCaP-abl cells; type: cell-based; conditions: single dose at time 0, persists for 48 hours, FIG. 16A
Method: ABL cells were treated similarly, but cultured in 5% charcoal-stripped phenol-red free RPMI. The mRNA was extracted at each time point and relative levels of indicated genes were analyzed by Q-PCR and normalized to RPL19. B) Protein from LNCaP cells was analyzed at each time point and immunoblotted with indicated antibodies.
Expression of tubulin (included as an internal loading control) and β-catenin were unaffected.

SMILES: CCc1ccc(-c2nc(CSCC(=O)NCCc3ccccc3)c(C)o2)cc1 [Compound C3]
- cell growth (LNCaP cells): completely abolished
- tumor volume (LNCaP-abl tumors): reduced tumor volume to a statistically significant degree
- mRNA of E-cadherin and GAPDH (controls) [1]: not affected
- mRNA of AR, NR×3.1, CDC20, PSA, CDK1, c-myc and UBE2C ([1]; with or without R1881): diminished
- AR, CDK1, UBE2C and c-myc mRNA [2]: diminished
